Data published in ChEMBL document CHEMBL5344444, “1-Benzylindoles as inhibitors of cytosolic phospholipase A2α: synthesis, biological activity, aqueous solubility, and cell permeability” (RSC Med Chem, 2024).
Values after ≈ are worked out from the molar mass of the structure shown. Active and inactive are the calls of the source. No cut-off for these calls is given here.

Assays:
[1] = Inhibition of porcine platelets cPLA2 alpha using 1-stearoyl-2-arachidonoyl-sn-glycero-3-phosphocholine as substrate incubated for 60 mins by RP-HPLC -MS analysis; design: species or system Sus scrofa
Sus scrofa = species on record: Sus scrofa; test: Inhibition of porcine platelets cPLA2 alpha using 1-stearoyl-2-arachidonoyl-sn-glycero-3-phosphocholine as substrate at 10 uM incubated for 60 mins by RP-HPLC -MS analysis relative to control
[2] = Aqueous solubility of compound in phosphate buffered saline at pH 7.4 incubated for 10 min by RP-HPLC analysis; format: physicochemical
[3] = Lipophilicity, logP of compound in acetonitrile/phosphate buffered saline at pH 7.4 by RP-HPLC analysis; format: physicochemical
[4] = Apparent permeability coefficient in human CaCo-2 cells at 10 uM incubated for 2 hrs by HPLC-MS analysis; format: ADME, cell-based
[5] = Drug metabolism in human CaCo-2 cells assessed as beta-oxidation of pentanoic acid chain by measuring 3-(5-{[5-Chloro-1-(2,4-dichlorobenzyl)indol-3-yl]methyl}-2H-tetrazol-2-yl) propionic acid formation at 10 uM; format: ADME, cell-based; conditions: caco-2, 10 µM

Row | SMILES | IC50 [1] [µM] | inhibition (Sus scrofa) | further results
1 | O=C(O)CCCCn1nnc(Cc2cn(Cc3ccc(Cl)cc3Cl)c3cc(Cl)ccc23)n1 | 0.36 |  | 
2 | Cc1ccc2c(c1)c(Cc1nnn(CCCCC(=O)O)n1)cn2Cc1ccc(Cl)cc1Cl | 0.21 |  | solubility at 10 min [2]: 15 µg/mL (≈ 31.8 µM); logP [3]: 4.6
3 | O=C(O)CCCCCn1nnc(-c2cn(Cc3ccc(Cl)cc3Cl)c3ccccc23)n1 | 9 |  | 
4 | O=C(O)CCCCn1nnc(Cc2cn(Cc3ccc(Cl)cc3Cl)c3ccccc23)n1 | 0.71 |  | solubility at 10 min [2]: 152 µg/mL (≈ 332 µM); logP [3]: 4
5 | O=C(O)CCCCn1nnc(Cc2cn(Cc3ccccc3Cl)c3ccccc23)n1 | 2.9 |  | 
6 | O=C(O)CCCCn1nnc(Cc2cn(Cc3ccc(Cl)cc3Cl)c3ccc(F)cc23)n1 | 0.2 |  | solubility at 10 min [2]: 74 µg/mL (≈ 155 µM); logP [3]: 4.1
7 | O=C(O)CCCCn1nnc(Cc2cn(Cc3ccc(Cl)cc3)c3ccccc23)n1 | 4.2 |  | 
8 | COc1ccc2c(Cc3nnn(CCCCC(=O)O)n3)cn(Cc3ccc(Cl)cc3Cl)c2c1 | 4.6 |  | 
9 | O=C(O)CCCCn1nnc(Cc2cn(Cc3ccc(Cl)cc3Cl)c3cc(F)ccc23)n1 | 0.75 |  | 
10 | O=C(O)CCCCn1nnc(Cc2cn(Cc3ccc(F)cc3)c3ccccc23)n1 | > 10 | 48% | 
11 | O=C(O)CCCCn1nnc(Cc2cn(Cc3ccccc3)c3ccccc23)n1 | > 10 | 41% | 
12 | O=C(O)CCCCn1nnc(Cc2cn(Cc3ccc(Cl)cc3Cl)c3ccc(C(F)(F)F)cc23)n1 | 0.074 |  | solubility at 10 min [2]: < 1 µg/mL; logP [3]: 4.9
13 | O=C(O)CCCn1nnc(Cc2cn(Cc3ccc(Cl)cc3Cl)c3ccccc23)n1 | > 10 | 32% | 
14 | COc1ccc2c(c1)c(CC(=O)O)c(C)n2C(=O)c1ccc(Cl)cc1 [INDOMETHACIN] |  |  | solubility at 10 min [2]: 260 µg/mL (≈ 727 µM); logP [3]: 2.9; Papp at 2 h, 10 µM [4]: 27 ×10⁻⁶ cm/s
15 | O=C(O)CCCCn1nnc(Cc2cn(Cc3c(Cl)cccc3Cl)c3ccccc23)n1 | > 10 | 19% | 
16 | O=C(O)CCCCn1nnc(Cc2cn(Cc3ccc(Cl)c(Cl)c3)c3ccccc23)n1 | 5.6 |  | 
17 | O=C(O)CCCCCn1nnc(Cc2cn(Cc3ccc(Cl)cc3Cl)c3ccccc23)n1 | 1.4 |  | 

Row | SMILES | IC50 [1] [µM] | inhibition (Sus scrofa) | further results
18 | O=C(O)CCCCn1nnc(Cc2cn(Cc3ccc(-c4ccccc4)cc3)c3ccccc23)n1 | > 10 | 47% | 
19 | Cc1ccc(Cn2cc(Cc3nnn(CCCCC(=O)O)n3)c3ccccc32)cc1 | 7 |  | 
20 | O=C(O)CCCCn1nnc(Cc2cn(Cc3ccc(C(F)(F)F)cc3)c3ccccc23)n1 |  | inactive | 
21 | Cc1ccc2c(Cc3nnn(CCCCC(=O)O)n3)cn(Cc3ccc(Cl)cc3Cl)c2c1 | 1 |  | 
22 | O=C(O)CCCCn1nnc(Cc2cn(Cc3ccc(Cl)cc3Cl)c3ccc(-c4ccc(Cl)cc4)cc23)n1 | 0.9 |  | 
23 | O=C(O)CCCn1nnc(CCc2cn(Cc3ccc(Cl)cc3Cl)c3ccccc23)n1 | > 10 | 23% | 
24 | O=C(O)CCc1ccc2c(c1)c(CCc1ccccc1)cn2-c1ccc(Oc2ccccc2)cc1 | 0.29 |  | solubility at 10 min [2]: < 1 µg/mL; logP [3]: 6.4
25 | O=C(O)CCCCn1nnc(Cc2cn(Cc3cccc(Cl)c3)c3ccccc23)n1 | > 10 | 33% | 
26 | Cc1c(CCOc2ccc(C(=O)O)cc2)c2cc(Cl)ccc2n1C(c1ccccc1)c1ccccc1 | 0.23 |  | solubility at 10 min [2]: < 1 µg/mL; logP [3]: 6.2
27 | COc1ccc2c(c1)c(Cc1nnn(CCCCC(=O)O)n1)cn2Cc1ccc(Cl)cc1Cl | 4.7 |  | 
28 | O=C(O)c1ccc(OC(=O)c2cn(Cc3ccc(Cl)cc3Cl)c3ccccc23)cc1 | > 10 | 45% | 
29 | O=C(O)CCCCn1nnc(Cc2cn(Cc3ccc(Cl)cc3Cl)c3cc(C(F)(F)F)ccc23)n1 | 0.17 |  | 
30 | O=C(O)CCCCn1nnc(CCc2cn(Cc3ccc(Cl)cc3Cl)c3ccccc23)n1 | 4.8 |  | 
31 | O=C(O)CCCCn1nnc(Cc2cn(Cc3ccc(Cl)cc3Cl)c3ccc(OC(F)(F)F)cc23)n1 | 0.57 |  | 
32 | O=C(O)CCCCn1nnc(Cc2cn(Cc3ccc(Cl)cc3Cl)c3ccc(Cl)cc23)n1 | 0.071 |  | solubility at 10 min [2]: < 1 µg/mL; Drug metabolism [5]: Metabolite_Detected; logP [3]: 4.7; Papp at 2 h, 10 µM [4]: 15 ×10⁻⁶ cm/s
33 | O=C(O)CCCCn1nnc(-c2cn(Cc3ccc(Cl)cc3Cl)c3ccccc23)n1 | > 10 | 48% | 
34 | O=C(O)CCCCn1nnc(Cc2cn(Cc3ccc(Cl)cc3Cl)c3ccc(OCc4ccc(Cl)cc4)cc23)n1 | 5.3 |  | 

Now from value to compound, other results behind:

Row | IC50 [1] [µM] | inhibition (Sus scrofa) | SMILES | further results
35 | 3.2 |  | O=C(O)CCCCn1nnc(Cc2cn(Cc3ccc(Cl)cc3Cl)c3ccc(-c4ccccc4)cc23)n1 | 
36 |  | 17% | O=C(O)c1ccc(N/N=C/c2cn(Cc3cccc(Oc4ccccc4)c3)c3ccccc23)cc1 | 
37 | > 10 | 41% | O=C(O)c1ccc2c(ccn2CCc2cn(Cc3ccc(Cl)cc3Cl)c3ccccc23)c1 | 
38 | > 10 | 24% | O=C(O)c1ccc2c(c1)c(C(=O)O)cn2CCc1cn(Cc2ccc(Cl)cc2Cl)c2ccccc12 | 
39 | 7.1 |  | COC(=O)c1cn(CCc2cn(Cc3ccc(Cl)cc3Cl)c3ccccc23)c2ccc(C(=O)O)cc12 | 
40 | > 10 | 47% | Cc1noc(-c2cn(CCc3cn(Cc4ccc(Cl)cc4Cl)c4ccccc34)c3ccc(C(=O)O)cc23)n1 | 
41 |  | 30% | O=C(O)c1ccc(N/N=C/c2ccc3c(ccn3Cc3ccc(Cl)cc3Cl)c2)cc1 | 
42 | 22 | 21% | O=C(O)c1ccc(N/N=C/c2cn(Cc3ccc(Cl)cc3Cl)c3ccccc23)cc1 | 
43 |  | 16% | O=C(O)c1ccc(N/N=C/c2cn(Cc3ccccc3)c3ccccc23)cc1 | 
44 | > 10 | 37% | O=C(O)c1ccc(Cn2nnc(-c3cn(Cc4ccc(Cl)cc4Cl)c4ccccc34)n2)cc1 | 
45 | 8 |  | O=C(O)c1ccc2c(c1)c(C(=O)C(F)(F)F)cn2CCc1cn(Cc2ccc(Cl)cc2Cl)c2ccccc12 | 
46 | > 10 | 32% | O=C(O)c1ccc2nn(CCc3cn(Cc4ccc(Cl)cc4Cl)c4ccccc34)cc2c1 | 
47 |  | 24% | O=C(O)c1ccc(N/N=C/c2cccc3c2ccn3Cc2ccc(Cl)cc2Cl)cc1 | 
48 |  | 15% | O=C(O)c1ccc(N/N=C/c2cn(Cc3ccc(C(F)(F)F)cc3)c3ccccc23)cc1 | 
49 | 2.8 |  | O=C(O)c1ccc(Cn2nnc(Cc3cn(Cc4ccc(Cl)cc4Cl)c4ccccc34)n2)cc1 | 
50 |  | inactive | O=C(O)c1ccc(N/N=C/c2cn(Cc3ccc(Oc4ccccc4)cc3)c3ccccc23)cc1 | 
51 |  | 27% | CN(/N=C/c1cn(Cc2ccc(Cl)cc2Cl)c2ccccc12)c1ccc(C(=O)O)cc1 | 
52 | 3.8 |  | O=C(O)c1ccc2c(cnn2CCc2cn(Cc3ccc(Cl)cc3Cl)c3ccccc23)c1 | 
53 | 6 |  | O=C(CCc1cn(Cc2ccc(Cl)cc2Cl)c2ccccc12)Oc1ccc(C(=O)O)cc1 | 
54 |  | 20% | O=C(O)c1ccc(N/N=C/c2cn(Cc3ccc(Cl)c(Cl)c3)c3ccccc23)cc1 | 
55 | 1.1 |  | O=C(O)c1ccc(OCCc2cn(Cc3ccc(Cl)cc3Cl)c3ccccc23)cc1 | 
56 | > 10 | 22% | O=C(O)CCCn1nnc(-c2cn(Cc3ccc(Cl)cc3Cl)c3ccccc23)n1 | 
57 |  | 32% | O=C(O)c1ccc(N/N=C/c2ccc3ccn(Cc4ccc(Cl)cc4Cl)c3c2)cc1 | 
58 |  | 15% | O=C(O)c1ccc(N/N=C/c2cn(Cc3ccccc3Oc3ccccc3)c3ccccc23)cc1 | 
59 | 3.9 |  | O=C(O)c1ccc2nn(CCc3cn(Cc4ccc(Cl)cc4Cl)c4ccccc34)nc2c1 | 
60 | 3.2 |  | O=C(Cc1cn(Cc2ccc(Cl)cc2Cl)c2ccccc12)Oc1ccc(C(=O)O)cc1 | 
